We go through 1 sequence from US5559209A, “Regulator regions of G proteins” (The General Hospital Corporation, priority 1993, dated 1996).

For one experiment, the target named is T1, Gi2 (Bos taurus, UniProt A7MBH9).
T1 construct: trimeric Gi2 (i.e., Gi2 αβγ) purified from bovine brain to near homogeneity; from tissue; host or cells: bovine brain
The experiment is described as follows: GTPγS binding, TrM-peptide 14-induced Gi2 activation in phospholipid vesicles. The class given is biochemical, bovine. As to conditions: 0.3 nM Gi2 in phospholipid vesicles, 100 nM TrM-peptide 14; read-out: IC50, inhibition of TrM-peptide 14 stimulation of Gi2. Here is the method:
(§1) Materials and Methods The in vitro assays described below utilize the couplone portion of each of a number of G-coupled receptors, instead of an intact receptor molecule, as a means for activating the corresponding anticouplone or intact G-protein. […]
(§2) GTPγS binding Assay--GTPγS binding to G proteins was assayed at 37° C. in 20 mM Hepes/NaOH buffer (pH 7.4) containing 130 μM MgCl2, 110 μM EDTA and 60 nM [^35 S]GTPγS, as described previously (Okamoto et al., 1990). […] The total amount of G protein was measured as maximal GTPγS binding at room temperature, as described (Okamoto et al., Cell 67:723-730, 1991a). […] Thus, the apparent first-order rate constant for GTPγS binding (kapp), which is equal to the slope of the tangent to the GTPγS binding curve at time 0 and represents the actual GTPγS binding rate, was calculated from this equation.
Transmembrane domain-connected peptide 14 ["TrM-peptide 14"; […] […] In one of the experiments shown in FIG. 1B, 0.3 nM Gi2 reconstituted in phospholipid vesicles with 100 nM TrM-peptide 14 was exposed to various concentrations of ACGi2, and GTPγS binding was measured (.diamond-solid.). […]
In general terms: GTPγS resists hydrolysis and so accumulates on activated G proteins.

The target in the next experiment is T2, Gs (Bos taurus, UniProt P04896).
T2 construct: Trimeric Gs and Gβγ purified from bovine brain to near homogeneity; from tissue; host or cells: bovine brain
T2 sequence (P04896 2-394 limits assumed): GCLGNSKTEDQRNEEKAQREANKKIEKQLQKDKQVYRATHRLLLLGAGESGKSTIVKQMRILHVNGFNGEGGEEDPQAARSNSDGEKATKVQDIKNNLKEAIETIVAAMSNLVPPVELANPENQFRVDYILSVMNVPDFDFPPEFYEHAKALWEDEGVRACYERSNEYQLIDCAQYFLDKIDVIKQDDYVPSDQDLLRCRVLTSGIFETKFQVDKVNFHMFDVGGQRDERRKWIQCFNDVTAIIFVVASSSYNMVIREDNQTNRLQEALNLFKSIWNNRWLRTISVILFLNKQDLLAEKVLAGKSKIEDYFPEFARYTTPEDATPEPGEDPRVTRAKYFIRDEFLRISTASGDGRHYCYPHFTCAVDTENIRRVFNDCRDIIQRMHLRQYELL
T2 sequence (P62871 2-340 partner limits assumed): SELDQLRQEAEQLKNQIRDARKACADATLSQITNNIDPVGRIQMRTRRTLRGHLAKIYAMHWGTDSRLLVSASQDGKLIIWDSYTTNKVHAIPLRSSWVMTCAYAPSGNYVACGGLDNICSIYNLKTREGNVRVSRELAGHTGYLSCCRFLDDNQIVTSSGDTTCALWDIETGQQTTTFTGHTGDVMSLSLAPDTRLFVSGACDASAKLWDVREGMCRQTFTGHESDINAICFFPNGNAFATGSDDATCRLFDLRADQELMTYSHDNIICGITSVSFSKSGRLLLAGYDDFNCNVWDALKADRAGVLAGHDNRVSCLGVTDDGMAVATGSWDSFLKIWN
T2 sequence (P63212 2-68 partner limits assumed): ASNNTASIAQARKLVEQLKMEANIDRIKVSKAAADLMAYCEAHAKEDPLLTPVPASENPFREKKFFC
The experiment is described as follows: GTPγS binding, βIII-2-induced Gs activation. The class given is biochemical, bovine. As to conditions: 10 nM Gs, 1 μM βIII-2, 10 min. Here is the method:
as §1, §2
GTPβS binding was measured following incubation of solubilized Gs at 10 nM with 1 μM βIII-2 (RRSSKFCLKEHKALK; SEQ ID NO: 29) in the presence of ACGi2 for 10 min. […]

Another experiment addresses Gi1 (Bos taurus, UniProt P63097). The experiment is described as follows: GTPγS binding, peptide 14-induced Gi1 activation. The class given is biochemical. To be noted: high concentrations (≥30 μM) of ACGi2; 10 nM Gi1, 30 μM peptide 14, 4 min. Here is the method:
GTPγS binding Assay--GTPγS binding to G proteins was assayed at 37° C. in 20 mM Hepes/NaOH buffer (pH 7.4) containing 130 μM MgCl2, 110 μM EDTA and 60 nM [^35 S]GTPγS, as described previously (Okamoto et al., 1990). GTPγS binding to polypeptides was negligible. The total amount of G protein was measured as maximal GTPγS binding at room temperature, as described (Okamoto et al., Cell 67:723-730, 1991a). [^35 S]GTPγS was purchased from DuPont-New England Nuclear. Binding of GTPγS to G proteins obeyed first-order kinetics according to the equation ln[(BT-B)/BT]=-kapp t, where B is the binding at time t and BT is the total binding observable at an infinite time. Thus, the apparent first-order rate constant for GTPγS binding (kapp), which is equal to the slope of the tangent to the GTPγS binding curve at time 0 and represents the actual GTPγS binding rate, was calculated from this equation.
Peptide 14 is capable of activating Gi1 and Gi3 as well as Gi2 (Okamoto et al., 1990). The effect of ACGi2 on peptide 14-induced activation of these Gi proteins was examined as follows: 10 nM Gi1 (.quadrature.) or Gi3 (.diamond-solid.) was incubated with 30 μM peptide 14 in the presence of various concentrations of ACGi2 for 4 min, and GTPβS binding was measured. The fractional GTPγS binding to Gi1 or Gi3 at 0% was (in 4 min^-1) 0.38 or 0.30, and that at 100% was 0.54 or 0.63, respectively.

The target in a further experiment is T3, mAChR-Gi2 coupling (Bos taurus, UniProt A7MBH9).
T3 construct: trimeric Gi2 purified from bovine spleen to homogeneity; from tissue; host or cells: bovine spleen (Gi2); porcine brain (mAChR)
T3 sequence (A7MBH9 2-355 limits assumed): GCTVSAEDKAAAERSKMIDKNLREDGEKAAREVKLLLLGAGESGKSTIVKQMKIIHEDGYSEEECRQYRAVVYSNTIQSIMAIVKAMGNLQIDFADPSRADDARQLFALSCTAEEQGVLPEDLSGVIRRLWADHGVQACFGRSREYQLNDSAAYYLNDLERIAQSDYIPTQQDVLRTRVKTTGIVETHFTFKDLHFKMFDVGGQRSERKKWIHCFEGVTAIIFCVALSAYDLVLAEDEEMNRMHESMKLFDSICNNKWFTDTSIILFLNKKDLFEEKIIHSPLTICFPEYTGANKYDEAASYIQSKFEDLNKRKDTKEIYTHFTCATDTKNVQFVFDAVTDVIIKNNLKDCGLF
T3 sequence (P62871 2-340 partner limits assumed): as the sequence (P62871 2-340 partner limits assumed) above
T3 sequence (P63212 2-68 partner limits assumed): as the sequence (P63212 2-68 partner limits assumed) above
The experiment can be described thus: GTPγS binding rate in mAChR-Gi2 reconstituted phospholipid vesicles. The experiment is classed as biochemical, porcine mAChR, bovine Gi2. To be noted: 30 μM ACGi2, 10 mM acetylcholine; read-out: inhibition of acetylcholine-induced Gi2 activation. The method, then: as §1
as §2, with “equation. […]” for “equation.”

The term pIC50 denotes the negative decadic logarithm of the IC50, by convention in mol/L. One may read the inhibition as the relative decrease from the control value, in per cent.

pIC50: −log10 of the molar value. Where no end group is shown, it is not given here.

T1 sequence (A7MBH9 2-355 limits assumed): as the sequence (A7MBH9 2-355 limits assumed) above
T1 sequence (P62871 2-340 partner limits assumed): as the sequence (P62871 2-340 partner limits assumed) above
T1 sequence (P63212 2-68 partner limits assumed): as the sequence (P63212 2-68 partner limits assumed) above
Gi1, sequence (P63097 2-354 limits assumed): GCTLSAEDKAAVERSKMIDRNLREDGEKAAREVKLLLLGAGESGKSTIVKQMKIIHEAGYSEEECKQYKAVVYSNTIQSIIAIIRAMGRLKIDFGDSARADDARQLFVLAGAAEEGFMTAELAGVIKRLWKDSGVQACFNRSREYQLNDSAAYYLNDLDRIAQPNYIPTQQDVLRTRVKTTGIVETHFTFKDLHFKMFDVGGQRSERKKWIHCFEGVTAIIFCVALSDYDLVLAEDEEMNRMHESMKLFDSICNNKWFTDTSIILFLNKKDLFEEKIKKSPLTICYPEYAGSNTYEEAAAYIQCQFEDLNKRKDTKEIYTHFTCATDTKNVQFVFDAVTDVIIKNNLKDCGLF
Gi1, sequence (P62871 2-340 partner limits assumed): as the sequence (P62871 2-340 partner limits assumed) above
Gi1, sequence (P63212 2-68 partner limits assumed): as the sequence (P63212 2-68 partner limits assumed) above

For “DAVTDVIIKNNLKDC [ACGi2, DAVTDVIIKNNLKDC]”, the pIC50 at Gi2 is 5.52. Further, the “maximal inhibition of βIII-2-stimulated Gs” value at Gs was 40%. Besides, at Gi1, the “maximal inhibition of peptide 14-induced Gi1 activation” value amounted to 30%. Further, the inhibition at 30 µM on mAChR-Gi2 coupling is approximately 75%.
